Data as given in patent US11590472B2, “Methods and compositions for on-demand release of ClO2 gas from UV-activated chlorite ion” (Wisconsin Alumni Research Foundation, priority 2015, dated 2023).

Tested on: L. monocytogenes
Assay: Microbial kill on L. monocytogenes inoculated lettuce in pouches
Type: cell-based
Settings: 5 days post inoculation and packaging
Description: To verify its efficacy against pathogenic bacteria, pouch samples were sent to Institute of Food Safety and Health (IFSH) for a microbial study where they were filled with 30 grams of lettuce that was inoculated with the L. monocytogenes with an initial count of 7.6E+06 CFU/g. The pouches were the same structure and size as Produce Packaging Example 1. The pouches were exposed to 3 s or 5 s of 254 nm UV radiation and analyzed for the microbial kill at 1 and 5 days. […] The pouches containing the ClO2 additive were either pre humidified to 80% RH or left unconditioned. The moisture required for the chlorine dioxide production in the dry samples came from the lettuce. It was observed that chlorine dioxide was able to attain 4-5 log kill in 5 days post inoculation and packaging.

`[O][Cl+][O-]` [chlorine dioxide] was tested, and the “log kill of L. monocytogenes” value was 4-5 log.
